Data published in BindingDB's records for doi:10.1016/j.bmc.2017.03.009 (Wuhan Institute of Technology, 2017).

Columns and labels:
[1] = Inhibition of HIV1 RES056 reverse transcriptase K103N/Y181C double mutant infected in human MT4 cells assessed as protection against virus-induced cytopathic effect measured at 5 days post infection by MTT assay
[2] = Inhibition of HIV-1 reverse transcriptase E138K mutant infected in human MT4 cells assessed as protection against virus-induced cytopathic effect measured at 5 days post infection by MTT assay

Structure (SMILES) | EC50 [1] [µM] | EC50 [2] [µM]
COc1ccccc1COc1ccnc(Nc2ccc(C#N)cc2)n1 | > 8.9 | 2.1
N#Cc1ccc(Nc2nccc(OCc3cccc4ccccc34)n2)cc1 | > 7.7 | 0.3
Cc1ccccc1COc1ccnc(Nc2ccc(C#N)cc2)n1 | > 12 | > 12
COc1cc(COc2ccnc(Nc3ccc(C#N)cc3)n2)cc(OC)c1 | > 44 | 0.23
N#Cc1ccc(Nc2nccc(OCc3ccc(Br)cc3F)n2)cc1 | > 141 | 35.8
N#Cc1ccc(Nc2nccc(OCc3ccc(F)cc3)n2)cc1 | > 81 | > 81
CN(C)c1ccnc(Nc2ccc(C#N)cc2)n1 | > 34 | > 34
N#Cc1ccc(Nc2nccc(OCc3ccccc3C(F)(F)F)n2)cc1 | > 173 | > 173
N#Cc1ccc(Nc2nccc(OCc3ccc(Br)cc3)n2)cc1 | > 16 | > 16
N#Cc1ccc(Nc2nccc(OCc3ccccc3C#N)n2)cc1 | > 113 | > 113
Cc1cccc(COc2ccnc(Nc3ccc(C#N)cc3)n2)c1 | > 30 | 1.18
N#Cc1ccc(Nc2nccc(OCc3ccccc3Cl)n2)cc1 | > 146 | > 146
N#Cc1ccc(Nc2nccc(OCc3cccnc3)n2)cc1 | > 6.4 | > 6.4
N#Cc1ccc(Nc2nccc(OCc3cccc(Cl)c3)n2)cc1 | > 153 | > 153
N#Cc1ccc(Nc2nccc(OCc3cc(F)ccc3Br)n2)cc1 | > 190 | > 190
Cc1ccc(COc2ccnc(Nc3ccc(C#N)cc3)n2)cc1 | > 81 | 7.2
N#Cc1ccc(Nc2nccc(OCc3cccc(C(F)(F)F)c3)n2)cc1 | > 118 | > 118
Cc1cc(C)nc(Sc2ccnc(Nc3ccc(C#N)cc3)n2)n1 | > 224 | > 224
N#Cc1ccc(Nc2nccc(OCc3ccccc3Br)n2)cc1 | > 130 | > 130
N#Cc1ccc(Nc2nccc(OCc3cccc(Br)c3)n2)cc1 | > 221 | 5
N#Cc1ccc(Nc2nccc(NCc3ccccn3)n2)cc1 | > 8.5 | 0.24
COc1ccc(COc2ccnc(Nc3ccc(C#N)cc3)n2)cc1 | > 102 | > 102
N#Cc1ccc(Nc2nccc(OCc3ccc(Cl)cc3)n2)cc1 | > 156 | > 156
COc1cccc(COc2ccnc(Nc3ccc(C#N)cc3)n2)c1 | > 118 | 1.1
N#Cc1ccc(Nc2nccc(OCc3ccccc3F)n2)cc1 | > 151 | 0.3
N#Cc1ccc(Nc2nccc(OCc3cccc(C#N)c3)n2)cc1 | > 4.1 | > 4.1
N#Cc1ccc(Nc2nccc(OCc3ccccc3)n2)cc1 | > 13 | 1.8
N#Cc1ccc(COc2ccnc(Nc3ccc(C#N)cc3)n2)cc1 | > 209 | > 209
N#Cc1ccc(Nc2nccc(OCc3cccc(F)c3)n2)cc1 | > 105 | 1.88
N#Cc1ccc(Nc2nccc(OCc3ccc4ccccc4c3)n2)cc1 | > 212 | 10
